Reference: ChEMBL document CHEMBL4354851, “Aggregation-Induced Emission Photosensitizers: From Molecular Design to Photodynamic Therapy” (2020)

Columns and labels:
[1] = Induction of […] generation assessed as bleaching rate of ABDA under white light irradiation relative to control; assay type: functional
HeLa = experiment: Photodynamic activity in human HeLa cells assessed as light dose required to kill 50% of cells by fluorescein diacetate and propidium iodide dye based fluorescence assay; assay type: functional

Row | SMILES | Activity [1] | Activity (HeLa)
1 | O=C(O)c1c(Cl)c(Cl)c(Cl)c(Cl)c1-c1c2cc(I)c(=O)c(I)c-2oc2c(I)c(O)c(I)cc12 | 55.6% | –
2 | CCC[n+]1cc2ccc(-c3ccc(N(c4ccccc4)c4ccccc4)cc3)cc2c(-c2ccccc2)c1-c1ccccc1.F[B-](F)(F)F | – | 3.7 kJ/cm2
3 | Cc1ccc(N(c2ccc(C)cc2)c2ccc(-c3ccc(/C=C/c4cc[n+](C)cc4)s3)cc2)cc1 | 90.7% | –
4 | C=Cc1c(C)c2cc3nc(c(CC(=O)O)c4[nH]c(cc5nc(cc1[nH]2)C(C)=C5CC)c(C)c4C(=O)O)C(CCC(=O)O)C3C (centres undefined) | 16.7% | –
